Experimental data taken from patent publication US20050124683A1, “HIV protease inhibitors, compositions containing the same, their pharmaceutical uses and materials for their synthesis” (priority 2003, published 2005).
Read-outs that look alike come from different tables or passages of the source.

Key:
HIV-1 = experiment: Antiviral EC50 in HIV-infected T-cell lines (CPE inhibition / susceptibility assays); type: cell-based; conditions: Human immunodeficiency virus 1, T-cell
Protocol: T-cell lines, CEM-SS, and MT-2, and viruses HIV-1 RF and HIV-1 NL4-3 (pNL4-3) were obtained from the National Institutes of Health (AIDS Research and Reference Reagent Program, Bethesda, MD).
The ability of compounds to protect cells against HIV infection was measured by the […] dye reduction method, essentially as described (See Pauwels, R. Balzarini, J. Baba, M. Snoeck, R. Schols, D. Herdewijn, P. Desmyter, J. and De Clercq, E. 1988, “Rapid and automated tetrazolium-based colorimetric assay for the detection of anti-HIV compounds,”. J Virol. Methods., 20: 309-321 and Weislow, O. S. Kiser, R. Fine, D. L. Bader, J. Shoemaker, R. H. and Boyd, M. R. 1989. “New soluble-formazan assay for HIV-1 cytopathic effects: application to high-flux screening of synthetic and natural products for AIDS-antiviral activity”. J. Natl. Cancer Inst. 81:577-586). Subject cells were infected with test virus at an moi of 0.025 to 0.819 or mock infected with medium only and added at 2×10^4 cells per well into 96 well plates containing half-log dilutions of test compounds. Six days later, 50 μl of XTT (1 mg/ml XTT tetrazolium, […] phenazine methosulfate) was added to the wells and the plate was reincubated for four hours. Viability, as determined by the amount of XTT formazan produced, was quantified spectrophotometrically by absorbance at 450 nm. Data from CPE assays were expressed as the percent of formazan produced in compound-treated cells compared to formazan produced in wells of uninfected, compound-free cells. The fifty percent effective concentration (EC50) was calculated as the concentration of compound that effected an increase in the percentage of formazan production in infected, compound-treated cells to 50% of that produced by uninfected, compound-free cells. The 50% cytotoxicity concentration (CC50) was calculated as the concentration of compound that decreased the percentage of formazan produced in uninfected, compound-treated cells to 50% of that produced in uninfected, compound-free cells. The therapeutic index was calculated by dividing the cytotoxicity (CC50) by the antiviral activity (EC50).
Compounds were tested in phenotypic susceptibility assays at Virologic, Inc., (See Petropoulos C. J., Parkin N. T., Limoli K. L., Lie Y. S., Wrin T., Huang W., Tian H., Smith D., Winslow G. A., Capon D J, Whitcomb J M. 2000, “A novel phenotypic drug susceptibility assay for human immunodeficiency virus type 1,” Antimicrob Agents Chemother 44(4):920-928) or using the assay described here. MT-2 cells were infected with either HIV-1 NL4-3 or HIV-1 NL4-3(I84V/L90M) and incubated in the presence of serial 0.5 log dilutions of test compounds. Three days later, culture supernatants were collected and virus production, as determined by p24 ELISA, was assayed. Percent inhibition was calculated as p24 concentration in compound-treated samples as compared to infected, compound-free controls. Inhibition of viral replication is determined by measuring reduction in HIV p24 present in the culture supernatant, using a Beckman-Coulter p24 HIV-1 Ag EIA kit and following the supplied protocol. Absorbance is read on a MRX microplate reader (Dynex Technologies). The EC50 was calculated as the concentration of compound that effected a decrease in the p24 production by infected, compound-treated cells to 50% of that produced by infected, compound-free cells.

HIV-1 protease = biological target: T1, HIV-1 protease (Human immunodeficiency virus type 1 group M subtype B, UniProt P04585, Q495S); experiment: HIV-1 Protease RET assay (Ki, resonance energy transfer); type: biochemical; conditions: Q7S mutant HIV-1 protease; read-out: Ki (nm)
T1 construct: made in house
Protocol: Ki's for the inhibitors of HIV-1 protease were determined using a resonance energy transfer (RET) assay. […] This enzyme is first partially purified as inclusion bodies from cell lysate. It is then solublized in 8M urea and passed through a Q-Sepharose column (Pharmacia) for further purification. To refold this protein, samples containing Q7S is dialyzed into 50 mM sodium phosphate pH 7.0, 50 mM NaCl, 10 mM DTT, and 10% glycerol.
The commercially available peptide substrate (Molecular Probes Cat. # H-2930) RE(EDANS)SQNYPIVQK(DABCYL)R is used to assess activity and Ki's. This peptide is cleaved quantitatively by HIV-1 Pr at the Tyr-Pro bond. The EDANS fluorophore absorbs at 340 nm and emits at 490 nm. The reaction is carried out in a 96 well plate in a total volume of 100 µL and is run for 12 minutes at 37C under steady-state conditions with 5 µM substrate and 2 nM active dimer enzyme concentration. The literature value Km for this substrate and enzyme is 103+/−8 μM (See Matayoshi, et al., “Novel Fluorogenic Substrates for Assaying Retroviral Proteases by Resonance Energy Transfer,” Science 247, 954 (1990)). The buffer for this reaction is 0.1M sodium acetate pH 4.8, 1M NaCl, 1 mM EDTA, 5 mM dithiothreitol, 10% dimethyl sulfoxide and 1 mg/ml bovine serum albumin. Inhibition curves are fit using the Morrison tight binding equation.

[1] = read-out: EC50 (wt) (nm), wt virus
[2] = read-out: Ave. EC50, average, unit inferred

| Structure (SMILES) | EC50 (HIV-1; [1]) | Ki (HIV-1 protease) | EC50 (HIV-1; [2]) |
| --- | --- | --- | --- |
| Cc1ccccc1CNC(=O)[C@H]1N(C(=O)[C@@H](O)[C@H](Cc2cccc(F)c2)NC(=O)c2cccc(O)c2C)CC(F)(F)C1(C)C | 17 nM | < 0.1 nM | – |
| CCCNC(=O)C1N(C(=O)[C@@H](O)[C@H](Cc2ccccc2)NC(=O)c2cc(C)cc(O)c2C)CC(F)(F)C1(C)C (some centres unmarked) | 9 nM | < 0.1 nM | – |
| C=CCNC(=O)[C@H]1N(C(=O)[C@@H](O)[C@H](Cc2ccccc2)NC(=O)c2cccc3c2CCN3)CC(F)(F)C1(C)C | 16 nM | < 0.1 nM | – |
| C=CCNC(=O)[C@H]1N(C(=O)[C@@H](O)[C@H](Cc2cccc(C(F)(F)F)c2)NC(=O)c2cccc(O)c2C)CC(F)(F)C1(C)C | 42 nM | < 0.1 nM | – |
| C=CCNC(=O)[C@H]1N(C(=O)[C@@H](O)[C@H](Cc2cccc(F)c2)NC(=O)c2cc(C)cc(O)c2C)CC(F)(F)C1(C)C | 25 nM | < 0.1 nM | – |
| Cc1cc(O)c(C)c(C(=O)N[C@@H](Cc2cccc(F)c2)[C@H](O)C(=O)N2CC(F)(F)C(C)(C)[C@H]2C(=O)NCc2ccccc2F)c1 | 6.7 nM | < 0.1 nM | – |
| CC[C@@H](COC)NC(=O)[C@H]1N(C(=O)[C@@H](O)[C@H](Cc2ccccc2)NC(=O)c2cc(C)cc(O)c2C)CC(F)(F)C1(C)C | 30 nM | < 0.1 nM | – |
| CCNC(=O)[C@H]1N(C(=O)[C@@H](O)[C@H](Cc2ccccc2)NC(=O)c2c(C)ccc(O)c2C)CC(F)(F)C1(C)C | 35 nM | < 0.1 nM | – |
| CCC(C)NC(=O)[C@H]1N(C(=O)[C@@H](O)[C@H](Cc2ccccc2)NC(=O)c2cccc(O)c2C)CC(F)(F)C1(C)C (some centres unmarked) | 31 nM | < 0.1 nM | – |
| CCC(C)NC(=O)C1N(C(=O)C(O)C(Cc2ccccc2)NC(=O)c2cc(C)cc(O)c2C)CC(F)(F)C1(C)C (centres unmarked) | 16 nM | < 0.1 nM | – |
| Cc1ccc(O)c(C)c1C(=O)N[C@@H](Cc1ccccc1)[C@H](O)C(=O)N1CC(F)(F)C(C)(C)[C@H]1C(=O)NCC(C)C | 44 nM | < 0.1 nM | – |
| CCCNC(=O)[C@H]1N(C(=O)[C@@H](O)[C@H](Cc2ccccc2)NC(=O)c2c(C)ccc(O)c2C)CC(F)(F)C1(C)C | 33 nM | < 0.1 nM | – |
| C=CCNC(=O)[C@H]1N(C(=O)[C@@H](O)[C@H](Cc2cccc(F)c2)NC(=O)c2cccc3c2CCN3)CC(F)(F)C1(C)C | 35 nM | < 0.1 nM | – |
| Cc1cc(O)c(C)c(C(=O)N[C@@H](Cc2ccccc2)[C@H](O)C(=O)N2CC(F)(F)C(C)(C)C2C(=O)NCC(C)C)c1 (some centres unmarked) | 31 nM | < 0.1 nM | – |
| CC(C)CNC(=O)[C@H]1N(C(=O)[C@@H](O)[C@H](Cc2ccccc2)NC(=O)c2cccc3c2CCN3)CC(F)(F)C1(C)C | 35 nM | < 0.1 nM | – |
| Cc1cc(O)c(C)c(C(=O)N[C@@H](Cc2cccc(F)c2)[C@H](O)C(=O)N2CC(F)(F)C(C)(C)C2C(=O)NCC(C)C)c1 (some centres unmarked) | 11 nM | < 0.1 nM | – |
| Cc1c(O)cccc1C(=O)N[C@@H](Cc1cccc(F)c1)[C@H](O)C(=O)N1CC(F)(F)C(C)(C)C1C(=O)NCC(C)C (some centres unmarked) | 13 nM | < 0.1 nM | – |
| CC(C)CNC(=O)[C@H]1N(C(=O)[C@@H](O)[C@H](Cc2cccc(F)c2)NC(=O)c2cccc3c2CCN3)CC(F)(F)C1(C)C | 42 nM | < 0.1 nM | – |

| Structure (SMILES) | EC50 (HIV-1; [1]) | Ki (HIV-1 protease) | EC50 (HIV-1; [2]) |
| --- | --- | --- | --- |
| CCCCNC(=O)[C@H]1N(C(=O)[C@@H](O)[C@H](Cc2cccc(F)c2)NC(=O)c2cccc(O)c2C)CC(F)(F)C1(C)C | 32 nM | < 0.1 nM | – |
| Cc1cc(O)c(C)c(C(=O)N[C@@H](Cc2cccc(F)c2)[C@H](O)C(=O)N2CC(F)(F)C(C)(C)[C@H]2C(=O)NCC(F)(F)F)c1 | 14 nM | < 0.1 nM | – |
| Cc1c(O)cccc1C(=O)N[C@@H](Cc1cccc(F)c1)[C@H](O)C(=O)N1CC(F)(F)C(C)[C@H]1C(=O)NCC(F)(F)F (some centres unmarked) | 10 nM | < 0.1 nM | – |
| COC[C@H](C)NC(=O)[C@H]1N(C(=O)[C@@H](O)[C@H](Cc2cccc(F)c2)NC(=O)c2cccc(O)c2C)CC(F)(F)C1(C)C | 100 nM | < 0.1 nM | – |
| Cc1c(O)cccc1C(=O)N[C@@H](Cc1ccccc1)[C@H](O)C(=O)N1CC(F)(F)C(C)(C)[C@H]1C(=O)NCc1ccncc1 | 130 nM | < 0.1 nM | – |
| Cc1cc(O)c(C)c(C(=O)N[C@@H](Cc2ccccc2)[C@H](O)C(=O)N2CC(F)(F)C(C)(C)[C@H]2C(=O)NCc2ccncc2)c1 | 110 nM | 0.26 nM | – |
| CCCNC(=O)[C@H]1N(C(=O)[C@@H](O)[C@H](Cc2cccc(F)c2)NC(=O)c2cc(C)cc(O)c2C)CC(F)(F)C1(C)C | 14 nM | < 0.1 nM | – |
| Cc1c(O)cccc1C(=O)N[C@@H](Cc1ccccc1)[C@H](O)C(=O)N1CC(F)(F)C(C)(C)[C@H]1C(=O)NCC(C)(C)C | 4.7 nM | < 0.1 nM | – |
| Cc1c(O)cccc1C(=O)N[C@@H](Cc1ccccc1)[C@H](O)C(=O)N1CC(F)(F)C(C)(C)[C@H]1C(=O)NCc1ccccc1F | 16 nM | < 0.1 nM | – |
| C=CCNC(=O)[C@H]1N(C(=O)[C@@H](O)[C@H](Cc2ccccc2)NC(=O)c2cccc(O)c2C)CC(O)C1(C)C (some centres unmarked) | 470 nM | 3.6 nM | – |
| Cc1c(O)cccc1C(=O)N[C@@H](Cc1ccccc1)[C@H](O)C(=O)N1CC(O)C(C)(C)[C@H]1C(=O)NCC(C)C (some centres unmarked) | 450 nM | 0.7 nM | – |
| Cc1ccccc1CNC(=O)[C@H]1N(C(=O)[C@@H](O)[C@H](Cc2ccccc2)NC(=O)c2cccc(O)c2C)CC(O)C1(C)C (some centres unmarked) | 140 nM | < 0.1 nM | – |
| COC1CN(C(=O)[C@@H](O)[C@H](Cc2ccccc2)NC(=O)c2cccc(O)c2C)[C@H](C(=O)NCc2ccccc2F)C1(C)C (some centres unmarked) | 1000 nM | 0.34 nM | – |
| Cc1cc(O)c(C)c(C(=O)N[C@@H](Cc2ccccc2)[C@H](O)C(=O)N2CC(C)(O)C(C)(C)[C@H]2C(=O)NCc2ccccc2C)c1 (some centres unmarked) | 12 nM | < 0.1 nM | – |
| Cc1ccccc1CNC(=O)[C@H]1N(C(=O)[C@@H](O)[C@H](Cc2ccccc2)NC(=O)c2cccc(O)c2C)CC(C)(O)C1(C)C (some centres unmarked) | 33 nM | < 0.1 nM | – |
| CCCNC(=O)[C@H]1N(C(=O)[C@@H](O)[C@H](Cc2ccccc2)NC(=O)c2cc(C)cc(O)c2C)CC(F)(F)C1(C)C [Example D14, (S)-4,4-Difluoro-1-1-[(2S,3S)-2-hydroxy-3-(3-hydroxy-2,5-dimethyl-benzoylamino)-4-phenyl-butyryl]-3,3-dimethyl-pyrrolidine-2-carboxylic acid propylamide] | – | – | 9 nM |
| Cc1cc(O)c(C)c(C(=O)N[C@@H](Cc2ccccc2)[C@H](O)C(=O)N2CC(F)(F)C(C)(C)[C@H]2C(=O)NCC(C)C)c1 [Example D15, (S)-4,4-Difluoro-1-1-[(2S,3S)-2-hydroxy-3-(3-hydroxy-2,5-dimethyl-benzoylamino)-4-phenyl-butyryl]-3,3-dimethyl-pyrrolidine-2-carboxylic acid isobutyl-amide] | – | – | 11 nM |
